Tests used:
[1] = accelerated autoxidation of lipids by air, Rancimat apparatus, squalene; settings: for AOI in squalene at 80° C. with 0.005% of test substance: squalene purified over alumina, stabilized with 1 ppm α-tocopherol, 0.005% test substance; for AOI, squalene, 80° C.: single substance, c 0.0025 % by wt.
Protocol: (§1) The test system used was the accelerated autoxidation of lipids by air with or without antioxidant using the Rancimat apparatus (Rancimat is a registered trademark of Metrohm AG, Herisau, Switzerland). […] In a control sample, only solvent was added. […] The conductivity of this aqueous solution was continuously measured and documented. The oxidation of (unsaturated) fats proceeds only very slowly for some time and then suddenly increases. The time to the increase is referred to as the induction period (IP). The following equation was used to calculate the antioxidative index (AOI): AOI=IP(with test solution/IP(control sample) The results for the experiment in squalene that has been purified over alumina grade N and stabilized with 1 ppm of α-tocopherol at 80° C. are shown in Table 3: The experiments were carried out as described under Example 2. […] The AOI values measured for the combinations were compared with the AOI values calculated according to the following formula: […]

[2] = accelerated autoxidation of lipids by air, Rancimat apparatus, soybean oil; settings: for AOI in soybean oil at 100° C. with 0.05% test substance: soybean oil purified over alumina, AOI = IP(test)/IP(control); for AOI, soybean oil, 100° C.: single substance, c 0.025 % by wt.
Protocol: as §1, with “soybean oil” for “squalene”, “N” for “N and stabilized with 1 ppm of α-tocopherol”, “100°” for “80°”, “2:” for “3:”

[3] = 1,1-diphenyl-2-picrylhydrazyl test (DPPH test) for the removal of free radicals; format: biochemical; settings: DPPH 100 μmol/l in methanol, absorption at 515 nm
Protocol: The activity of 3,4-dihydroxymandelic acid as free-radical scavenger was compared with that of conventional free-radical scavengers. For this purpose, the 1,1-diphenyl-2-picrylhydrazyl test (DPPH test) for the removal of free radicals was used.
1,1-Diphenyl-2-picrylhydrazyl (DPPH) was dissolved in methanol to a concentration of 100 μmol/l. A series of dilutions of 3,4-dihydroxymandelic acid, vitamin C, α-tocopherol and 2,6-di-tert-butyl-4-methylphenol were prepared in methanol. Methanol was used as the control. 2500 μl of the DPPH solution were mixed with 500 μl of each test solution and the decrease in absorption at 515 nm was read until the decrease was less than 2% per hour. The activity of the test substances as free-radical scavengers was calculated using the following equation:
Activity as free-radical scavenger (%)=100−(absorption of the test compounds)/(absorption of the control)×100.
The activity of the free-radical scavengers (%) in a series of dilutions of test compounds was used to calculate, for each test compound, the effective relative concentration EC50 (based on the starting concentration of DPPH, EC=c (test compound)/c(DPPH)) of a test compound at which 50% of the free radical DPPH had been removed.

[4] = test system: ultraviolet light-induced sebum oxidation (squalene hydroperoxide, SQOOH); experiment: protective action against ultraviolet light-induced sebum oxidation on the skin of subjects; format: in vivo, human; settings: back skin of 12 subjects, UV 320 to 400 nm, 10 joules/cm^2; for c(H2O2)/c(SQ): 2 mg/cm^2 topical (acid: 200 mg in 200 ml 1,3-butylene glycol twice daily for 2 days; tocopherol: 0.2% ethanolic, once before irradiation); for % inhibition compared with the untreated area: squalene hydroperoxide, 2 mg/cm^2 topical
Protocol: 200 mg of 3,4-dihydroxymandelic acid were dissolved in 200 ml of 1,3-butylene glycol (solution A). In addition, a 0.2% strength ethanolic solution of tocopherol was prepared (solution B). A dose of 2 mg/cm^2 of solution A was applied twice daily to the skin on the back of 12 subjects for 2 days in each case. Prior to the following irradiation, solution B was applied to a control area (2 mg/cm^2). The 2 treated and one untreated sites were irradiated with ultraviolet light (320 to 400 nm, 10 joules/cm^2). The test areas in each case were treated with 4 ml of ethanol for 2 min, the solutions were dried under nitrogen at room temperature and the residue was taken up in 1 ml of ethanol. The latter solutions were investigated by HPLC for their content of squalene (detection at 210 nm against standard) or squalene hydroperoxide (SQOOH, determination of the peroxide content using cytochrome C/luminol-enhanced chemiluminescence). The content of squalene peroxide was given relative to squalene in the form of picomols peroxide per fig of squalene.
The inhibition based on the untreated area was calculated using the following equation:
% inhibition=100·(cSQOOH untreated−cSQOOH, treated)/CSQOOH, untreated

| Structure (SMILES) | AOI in squalene at 80° C. with 0.005% of test substance [1] | AOI in soybean oil at 100° C. with 0.05% test substance [2] | EC50 (effective relative concentration at which 50% of the free radical DPPH had been removed, c(test compound)/c(DPPH)) [3] [mol/mol] | AOI, squalene, 80° C. [1] | AOI, soybean oil, 100° C. [2] | c(H2O2)/c(SQ) [4] [pmol/µg] | % inhibition compared with the untreated area [4] [%] |
| --- | --- | --- | --- | --- | --- | --- | --- |
| O=C1O[C@H]([C@@H](O)CO)C(O)=C1O [Vitamin C] | 0.7 | 1.2 | 0.270 |  |  |  |  |
| Cc1cc(C(C)(C)C)c(O)c(C(C)(C)C)c1 [2,6-Di-tert-butyl-4-methylphenol] | 38 | 4.8 | 0.240 |  |  |  |  |
| O=C(O)C(O)c1ccc(O)c(O)c1 (centres unmarked) [3,4-Dihydroxymandelic acid, 2-(3,4-dihydroxyphenyl)-2-hydroxyacetic acid] | 34 | 9.5 | 0.062 | 15 | 5.4 | 618 ± 45 | 33 ± 7 |
| Cc1c(C)c2c(c(C)c1O)CC[C@@](C)(CCC[C@H](C)CCC[C@H](C)CCCC(C)C)O2 [α-Tocopherol] | 39 | 5.1 | 0.250 | 23 | 4.7 | 664 ± 19 | 28 ± 6 |

From patent US20030053967A1, “Use of 3,4-dihydroxy-mandelic acid for protecting against oxidative damage caused by ultra-violet light” (priority 2000, published 2003)
